Earlier results, collected in patent US10208063B2, “ACC inhibitors and uses thereof” (Gilead Apollo, LLC, priority 2013, dated 2019).

How the values were obtained:
[1] = system: ACC1; conditions: ACC1 isolated from rat, mouse, monkey and human
[2] = system: ACC2; conditions: ACC2 isolated from rat, mouse, monkey and human
[3] = biological target: T1, pyruvate carboxylase (Homo sapiens, UniProt P11498)
T1 sequence (P11498 21-1178): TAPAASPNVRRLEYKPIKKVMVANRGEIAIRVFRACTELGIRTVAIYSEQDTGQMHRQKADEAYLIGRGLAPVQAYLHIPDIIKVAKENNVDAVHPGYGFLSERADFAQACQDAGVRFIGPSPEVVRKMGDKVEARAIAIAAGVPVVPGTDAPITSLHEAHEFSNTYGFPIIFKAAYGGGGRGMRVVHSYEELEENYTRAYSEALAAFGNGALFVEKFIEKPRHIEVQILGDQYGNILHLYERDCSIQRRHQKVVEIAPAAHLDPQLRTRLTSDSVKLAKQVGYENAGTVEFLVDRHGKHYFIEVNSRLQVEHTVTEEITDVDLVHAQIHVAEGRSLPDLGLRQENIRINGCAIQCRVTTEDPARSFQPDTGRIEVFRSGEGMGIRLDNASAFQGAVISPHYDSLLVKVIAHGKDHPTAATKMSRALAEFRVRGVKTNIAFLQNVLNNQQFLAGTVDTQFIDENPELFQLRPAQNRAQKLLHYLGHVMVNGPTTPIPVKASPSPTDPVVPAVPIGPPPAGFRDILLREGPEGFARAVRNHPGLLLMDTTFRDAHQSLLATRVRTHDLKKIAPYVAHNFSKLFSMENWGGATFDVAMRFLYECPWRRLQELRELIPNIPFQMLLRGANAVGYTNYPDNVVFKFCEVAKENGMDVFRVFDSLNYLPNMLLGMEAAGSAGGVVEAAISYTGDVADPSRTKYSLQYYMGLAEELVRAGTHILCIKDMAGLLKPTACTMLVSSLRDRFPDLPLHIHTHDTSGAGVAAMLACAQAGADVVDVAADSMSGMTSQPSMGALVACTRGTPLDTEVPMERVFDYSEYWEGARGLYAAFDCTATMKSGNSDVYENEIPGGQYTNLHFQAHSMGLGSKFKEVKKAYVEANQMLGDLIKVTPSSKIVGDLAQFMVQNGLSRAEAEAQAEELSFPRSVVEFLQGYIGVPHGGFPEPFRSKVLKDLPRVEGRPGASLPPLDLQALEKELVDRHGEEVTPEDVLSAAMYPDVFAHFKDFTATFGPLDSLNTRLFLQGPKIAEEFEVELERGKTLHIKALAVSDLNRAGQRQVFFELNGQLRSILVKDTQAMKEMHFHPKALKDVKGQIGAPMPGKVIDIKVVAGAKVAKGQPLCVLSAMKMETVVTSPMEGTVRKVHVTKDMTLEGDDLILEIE

[4] = biological target: T2, propionyl-CoA carboxylase (Homo sapiens, UniProt P05165+P05166)
T2 sequence (P05165 53-728): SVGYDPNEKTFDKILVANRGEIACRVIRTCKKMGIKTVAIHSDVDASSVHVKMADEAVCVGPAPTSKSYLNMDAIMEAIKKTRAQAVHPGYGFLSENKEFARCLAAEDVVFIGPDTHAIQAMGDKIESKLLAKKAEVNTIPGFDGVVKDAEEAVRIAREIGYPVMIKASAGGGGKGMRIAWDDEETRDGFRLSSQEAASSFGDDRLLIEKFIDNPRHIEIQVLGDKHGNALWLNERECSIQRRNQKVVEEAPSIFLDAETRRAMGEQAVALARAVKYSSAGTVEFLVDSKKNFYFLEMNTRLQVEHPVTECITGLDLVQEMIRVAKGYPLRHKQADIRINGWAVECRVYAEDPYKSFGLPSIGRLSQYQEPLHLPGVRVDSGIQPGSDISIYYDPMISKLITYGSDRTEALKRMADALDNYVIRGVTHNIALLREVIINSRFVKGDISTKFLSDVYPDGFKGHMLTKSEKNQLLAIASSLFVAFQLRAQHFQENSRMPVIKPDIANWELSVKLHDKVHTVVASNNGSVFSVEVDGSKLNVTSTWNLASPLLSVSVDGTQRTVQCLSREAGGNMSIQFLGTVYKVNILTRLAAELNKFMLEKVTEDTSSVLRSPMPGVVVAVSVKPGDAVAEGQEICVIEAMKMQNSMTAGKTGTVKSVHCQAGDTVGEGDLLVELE
T2 sequence (P05166 29-539): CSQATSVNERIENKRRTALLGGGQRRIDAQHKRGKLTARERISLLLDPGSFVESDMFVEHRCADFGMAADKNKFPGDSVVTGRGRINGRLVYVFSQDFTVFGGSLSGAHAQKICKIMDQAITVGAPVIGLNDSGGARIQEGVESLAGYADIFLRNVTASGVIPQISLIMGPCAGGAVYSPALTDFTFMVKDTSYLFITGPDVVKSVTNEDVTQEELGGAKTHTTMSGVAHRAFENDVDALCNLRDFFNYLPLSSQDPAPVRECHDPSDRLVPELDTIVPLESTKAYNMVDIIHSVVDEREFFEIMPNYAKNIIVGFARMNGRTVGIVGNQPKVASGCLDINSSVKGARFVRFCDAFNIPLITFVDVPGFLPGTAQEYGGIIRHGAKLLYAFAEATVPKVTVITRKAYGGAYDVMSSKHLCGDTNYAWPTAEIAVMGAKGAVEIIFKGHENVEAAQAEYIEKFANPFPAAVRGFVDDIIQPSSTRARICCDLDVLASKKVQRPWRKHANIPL

[5] = system: Hep-G2 cells
[6] = system: C2C12 cells
[7] = system: rat muscle slices
[8] = sucrose-fed rats, three weeks
[9] = system: insulin-resistant rat muscle tissue; conditions: within 30 min of compound administration
[10] = rats, acute (46 min) treatment
[11] = system: liposarcoma

O=C(c1c2ccccc2cc2ccccc12)N1CCC(N2CCC[C@@H](C(=O)N3CCOCC3)C2)CC1 [CP-640186]
IC50 [1]: ~60 nM | IC50 [2]: ~60 nM | inhibition of pyruvate carboxylase [3]: without inhibiting | inhibition of propionyl-CoA carboxylase [4]: without inhibiting | CPT-I activity [5]: increased | FA synthesis [5]: reduced | apoA1 secretion [5]: without affecting | apoB secretion [5]: reduced | cholesterol synthesis [5]: without affecting | triglyceride synthesis and secretion [5]: reduced | FA oxidation [6]: stimulated | FA oxidation [7]: stimulated | liver and adipose tissue FA synthesis (experimental animals): reduced | whole body FA oxidation (experimental animals): increased | malonyl-CoA concentration (lipogenic and oxidative tissues, fed and fasted state): acutely reduced | insulin sensitivity [8]: improved | leptin levels [8]: reduced | liver, muscle and adipose triglycerides [8]: time- and dose-dependently reduced | body weight ([8]; selective fat reduction without reducing lean body mass): reduced | hyperinsulinemia produced by the high sucrose diet ([8]; without changing plasma glucose levels): reduced | insulin sensitivity [9]: stimulation | FA clearance [10]: stimulated | glucose clearance [10]: without decreasing

CO[C@H]1CCCC[C@@H](c2ccccc2)OC(=O)[C@@H](C)[C@@]2(O)O[C@H]([C@@H](C)[C@H](O)[C@H]2OC)[C@@H](C)/C=C/[C@H]1OC [soraphen A]
lipogenesis [11]: inhibited | tumor cell growth [11]: inhibited
